From patent publication US20230091225A1, “Bifunctional chimeric heterocyclic compounds for targeted degradation of androgen receptors and use thereof” (HINOVA PHARMACEUTICALS INC., priority 2019, published 2023)
Read-outs that look alike come from different tables or passages of the source.

How the values were obtained:
Assay type in all cases: cell-based
[1] = target: T1, androgen receptor (AR) (Homo sapiens, UniProt P10275); assay: Degradation of androgen receptor (AR) protein in VCaP cells by Western blot; conditions: percentage of degraded AR at 100 nM, VCaP cells, 16 h
T1 sequence (P10275 1-920): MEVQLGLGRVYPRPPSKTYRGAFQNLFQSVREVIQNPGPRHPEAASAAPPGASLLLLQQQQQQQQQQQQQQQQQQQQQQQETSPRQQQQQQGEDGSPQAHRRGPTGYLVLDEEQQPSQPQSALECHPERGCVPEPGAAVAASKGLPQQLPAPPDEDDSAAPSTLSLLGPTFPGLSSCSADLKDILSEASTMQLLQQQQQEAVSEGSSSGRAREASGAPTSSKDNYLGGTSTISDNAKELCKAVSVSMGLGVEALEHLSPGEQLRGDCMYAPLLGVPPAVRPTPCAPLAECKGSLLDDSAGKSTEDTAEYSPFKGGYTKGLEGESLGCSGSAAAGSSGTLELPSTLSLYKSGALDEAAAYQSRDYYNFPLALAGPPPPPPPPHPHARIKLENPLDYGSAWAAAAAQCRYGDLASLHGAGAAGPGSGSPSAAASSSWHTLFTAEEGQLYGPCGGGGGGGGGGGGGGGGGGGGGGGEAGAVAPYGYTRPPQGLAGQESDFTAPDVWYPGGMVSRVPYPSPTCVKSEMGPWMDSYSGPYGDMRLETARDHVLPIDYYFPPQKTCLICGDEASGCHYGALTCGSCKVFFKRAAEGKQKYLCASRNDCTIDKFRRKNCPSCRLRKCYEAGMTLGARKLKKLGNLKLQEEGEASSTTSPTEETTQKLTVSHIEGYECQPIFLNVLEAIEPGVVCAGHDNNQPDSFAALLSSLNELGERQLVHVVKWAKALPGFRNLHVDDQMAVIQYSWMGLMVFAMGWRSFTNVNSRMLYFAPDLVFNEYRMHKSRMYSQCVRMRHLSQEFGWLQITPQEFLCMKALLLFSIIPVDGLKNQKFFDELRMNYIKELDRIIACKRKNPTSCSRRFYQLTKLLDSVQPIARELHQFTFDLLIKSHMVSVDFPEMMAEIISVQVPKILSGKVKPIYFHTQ
In short: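 AR and β-actin levels were read by Western blot with ECL detection, loading 30 μg lysate protein per well. Before lysis, VCaP cells seeded at 5×10^5/well and grown overnight were exposed to compound for 16 h, two wells per concentration, keeping DMSO at 0.1%.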

[2] = system: LNCaP/AR cells; assay: Inhibition of proliferation of LNCaP/AR prostate cancer cells (CCK-8)
[3] = target: T1, androgen receptor (AR); assay: Degradation of androgen receptor (AR) protein in VCaP cells by ELISA; conditions: for inhibition at 0.1 µM: read-out: % degradation
[4] = 144 h, proliferation of LNCap/AR cells, 6 days, CCK-8, read-out: IC50
[5] = percentage of degraded AR at 100 nM, VCaP cells, 16 h, ELISA
[6] = proliferation of LNCap/AR cells, 6 days, CCK-8, read-out: IC50

| IC50 [2, 4] [nM] | inhibition at 0.1 µM [3, 5] [%] | Molecule | other results |
| --- | --- | --- | --- |
| 100 to 500 | – | CC1(C)[C@H](Oc2ccc(C#N)c(Cl)c2)C(C)(C)[C@H]1N1Cc2cc(N3CCC(CN4CCN(c5ccc6c(c5)C(=O)N(C5CCC(=O)NC5=O)C6=O)CC4)CC3)ccc2C1=O (some centres unmarked) [Compound 249] | inhibition at 0.1 µM [1]: < 25% |
| – | – | CC(=O)O[C@@H]1CC(C(=O)NC2(c3ccc(-c4scnc4C)cc3)CC2)N(C(=O)[C@@H](NC(=O)COCCCCCNc2ccc(C(=O)N[C@H]3C(C)(C)[C@H](Oc4ccc(C#N)c(Cl)c4)C3(C)C)cc2)C(C)(C)C)C1 (stereo partly drawn) [Compound 46, (3R,5S)-1-((S)-2-(2-((5-((4-(((1r,3r)-3-(3-chloro-4-cyanophenoxy)-2,2,4,4-tetramethylcyclobutyl)carbamoyl)phenyl)amino)pentyl)oxy)acetamido)-3,3-dimethylbutanol)-5-((1-(4-methylthiazol-5-yl)phenyl)cyclopropyl)carbamoyl) pyrrolidin-3-yl acetate] | inhibition at 0.1 µM ([3]; VCaP, 16 h): 25 to 49%; IC50 ([2]; LNCaP/AR, 144 h): < 100 nM |
| 100 to 500 | 50 to 79 | CC1(C)[C@H](Oc2ccc(C#N)c(Cl)c2)C(C)(C)[C@H]1N1Cc2nc(N3CCC(CN4CCN(c5cc6c(cc5F)C(=O)N(C5CCC(=O)NC5=O)C6=O)CC4)CC3)ccc2C1=O (some centres unmarked) [Compound 198] | – |
| 100 to 500 | 50 to 79 | Cc1ncsc1-c1ccc([C@H](C)NC(=O)C2C[C@@H](O)CN2C(=O)[C@@H](NC(=O)COCCN2CCN(c3ccc4c(c3)CN([C@H]3C(C)(C)[C@H](Oc5ccc(C#N)c(Cl)c5)C3(C)C)C4=O)CC2)C(C)(C)C)cc1 (stereo partly drawn) [Compound 3, (2S,4R)-1-((S)-2-(2-(2-(4-(2-((1R,3R)-3-(3-chloro-4-cyanophenoxy)-2,2,4,4-tetramethylcyclobutyl)-1-oxoisoindolin-5-yl)piperazin-1-yl)ethoxy)acetylamino)-3,3-dimethylbutyryl)-4-hydroxy-N-((S)-1-(4-(4-methylthiazol-5-yl)phenyl)ethyl)pyrrolidine-2-carboxamide] | – |
| > 1000 | < 25 | N#Cc1ccc(O[C@H]2CC[C@H](N3Cc4nc(N5CCC(CN6CCN(c7cccc8c7C(=O)N(C7CCC(=O)NC7=O)C8=O)CC6)CC5)ccc4C3=O)CC2)cc1Cl (some centres unmarked) [Compound 217] | – |
| – | – | CC(=O)O[C@@H]1C[C@H](C(=O)N[C@@H](C)c2ccc(-c3scnc3C)cc2)N(C(=O)[C@@H](NC(=O)COCCCCC#Cc2ccc3c(c2)C(=O)N(C2C(C)(C)C(Oc4ccc(C#N)c(Cl)c4)C2(C)C)C3)C(C)(C)C)C1 (stereo partly drawn) [Compound 4, (3R,5R)-1-((S)-2-(2-((6-(2-((1R,3R)-3-(3-chloro-4-cyanophenoxy)-2,2,4,4-tetramethylcyclobutyl)-3-oxoisoindolin-5-yl)hex-5-yn-1-yl)oxy)acetylamino)-3,3-dimethylbutyryl)-5-(((S)-1-(4-(4-methylthiazol-5-yl)phenyl)ethyl)carbamoyl) pyrrolidin-3-yl acetate] | % degradation [3]: C (key: A: >80%; B: 79%-50%; C: 49%-25%; D: <25%); IC50 [2, 6]: < 100 nM |
| – | – | (2R,4R)-1-((S)-2-(2-((5-((2-((1r,3r)-3-(4-cyano-3-(trifluoromethyl) phenoxy)-2,2,4,4-tetramethylcyclobutyl)-1-oxoisoindolin-5-yl)amino)phenyl)oxy) acetylamino)-3,3-dimethylbutyryl)-4-hydroxy-N-((R)-1-(4-(4-methylthiazol-5-yl)phenyl)ethyl)pyrrole-2-formamide [Compound 16] | % degradation [3]: C (key: A: >80%; B: 79%-50%; C: 49%-25%; D: <25%); IC50 [2, 6]: < 100 nM |
| < 100 | > 80 | Cc1ncsc1-c1ccc([C@H](CO)NC(=O)[C@@H]2C[C@@H](O)CN2C(=O)[C@@H](NC(=O)COCCCCC#Cc2ccc3c(c2)CN([C@H]2C(C)(C)[C@H](Oc4ccc(C#N)c(Cl)c4)C2(C)C)C3=O)C(C)(C)C)cc1 [Compound 48, (2S,4R)-1-((S)-2-(2-((6-(2-(((1r,3r)-3-(3-chloro-4-cyanophenoxy))-2,2,4,4-tetramethylcyclobutyl)-1-oxoisoindolin-5-yl)hex-5-yn-1-yl)oxy)acetamido)-3,3-dimethylbutyryl)-4-hydroxy-N-((R)-2-hydroxy-1-(4-(4-methylthiazol-5-yl)phenyl)ethyl)pyrrolidine-2-carboxamide] | – |
| < 100 | 50 to 79 | [2H]C([2H])([2H])N(C(=O)c1ccc(C#CCCCCCOCC(=O)N[C@H](C(=O)N2C[C@H](O)C[C@H]2C(=O)N[C@@H](C)c2ccc(-c3scnc3C)cc2)C(C)(C)C)cc1)[C@H]1C(C)(C)[C@H](Oc2ccc(C#N)c(Cl)c2)C1(C)C [Compound 24] | – |
| – | – | CC(C#Cc1ccc2c(c1)CN(C1C(C)(C)C(Oc3ccc(C#N)c(Cl)c3)C1(C)C)C2=O)N1CCN(c2cc3c(cc2F)C(=O)N(C2CCC(=O)NC2=O)C3=O)CC1 (centres unmarked) [Compound 199, 2-chloro-4-((1r,3r)-3-(5-(4-(2,6-dioxopiperidin-3-yl)-6-fluoro-1,3-dioxoisoindolin-5-yl)piperazin-1-yl)but-1-yn-1-yl)-1-oxoisoindolin-2-yl)-2,4,4-tetramethylcyclobutoxy)benzonitrile] | % degradation [3, 5]: D (<25%); IC50 [2, 6]: > 1000 nM |
| – | – | Cc1ncsc1-c1ccc([C@@H](C)NC(=O)[C@H]2C[C@@H](O)CN2C(=O)[C@H](NC(=O)COCCCCCNc2ccc(C(=O)NC3C[C@]4(C)O[C@@]3(C)[C@@H]3C(=O)N(c5ccc(C#N)c(Cl)c5)C(=O)[C@@H]34)c(F)c2)C(C)(C)C)cc1 (stereo partly drawn) [Compound 20, (2R,4S)-1-((2R)-2-(2-((5-((4-(((3aS,4S,7S,7aR)-2-(3-chloro-4-benzonitrile)-4,7-dimethyl-1,3-dioxooctahydro-1H-4,7-epoxyisoindolin-5-yl)carbamoyl)-3-fluorophenyl)amino)pentyl)oxy)acetylamino)-3,3-dimethylbutyryl)-4-hydroxy-N-((R)-1-(4-(4-methylthiazol-5-yl)phenyl)ethyl)pyrrolidine-2-carboxamide] | inhibition at 0.1 µM ([3]; VCaP, 16 h): 25 to 49%; IC50 ([2]; LNCaP/AR, 144 h): < 100 nM |
| < 100 | 50 to 79 | Cc1ncsc1-c1ccc(C2(NC(=O)C3C[C@@H](O)CN3C(=O)[C@@H](NC(=O)COCCCCCNc3ccc(C(=O)N[C@H]4C(C)(C)[C@H](Oc5ccc(C#N)c(Cl)c5)C4(C)C)cc3)C(C)(C)C)CC2)cc1 (some centres unmarked) [Compound 47] | – |
| < 100 | 25 to 49 | [2H]C([2H])([2H])N(C(=O)c1ccc(C#CCCCOCC(=O)N[C@H](C(=O)N2C[C@H](O)C[C@H]2C(=O)N[C@@H](C)c2ccc(-c3scnc3C)cc2)C(C)(C)C)cc1)[C@H]1C(C)(C)[C@H](Oc2ccc(C#N)c(Cl)c2)C1(C)C [Compound 22] | – |
| – | – | CC(=O)O[C@@H]1C[C@@H](C(=O)N[C@@H](C)c2ccc(-c3scnc3C)cc2)N(C(=O)[C@@H](NC(=O)Cn2cc(C#Cc3ccc4c(c3)CN([C@H]3C(C)(C)[C@H](Oc5ccc(C#N)c(Cl)c5)C3(C)C)C4=O)cn2)C(C)(C)C)C1 [Compound 10, (3R,5S)-1-((S)-2-(2-(4-((2-((1r,3r)-3-(3-chloro-4-cyanophenoxy)-2,2,4,4-tetramethylcyclobutyl)-1-oxoisoindolin-5-ylethynyl)-1H-pyrazol-1-yl)acetylamino)-3,3-dimethylbutyryl)-5-((((S)-1-(4-(4-methylthiazol-5-yl)phenyl)ethylcarbamoyl)pyrrolidin-3-yl acetate] | % degradation [3]: C (key: A: >80%; B: 79%-50%; C: 49%-25%; D: <25%); IC50 [2, 6]: 100 to 500 nM |
| < 100 | 50 to 79 | Cc1ncsc1-c1ccc([C@H](C)NC(=O)[C@@H]2C[C@@H](O)CN2C(=O)[C@@H](NC(=O)CN2CC(CC#Cc3ccc4c(c3)CN([C@H]3C(C)(C)[C@H](Oc5ccc(C#N)c(Cl)c5)C3(C)C)C4=O)C2)C(C)(C)C)cc1 [Compound 43] | – |

| Molecule | IC50 [2, 4] [nM] | inhibition at 0.1 µM [3, 5] [%] | other results |
| --- | --- | --- | --- |
| CC(=O)O[C@@H]1C[C@@H](C(=O)N[C@@H](C)c2ccc(-c3scnc3C)cc2)N(C(=O)[C@@H](NC(=O)COCCCCCNc2ccc3c(c2)C(=O)N([C@H]2C(C)(C)[C@H](Oc4ccc(C#N)c(Cl)c4)C2(C)C)C3)C(C)(C)C)C1 [Compound 6, (3R,5S)-1-((S)-2-(2-((5-((2-((1R,3R)-3-(3-chloro-4-cyanophenoxy)-2,2,4,4-tetramethylcyclobutyl)-3-oxoisoindolin-5-yl)amino)pentyl)oxy)acetylamino)-3,3-dimethylbutyryl)-5-(((S)-1-(4-(4-methylthiazol-5)-yl)phenyl)ethyl)carbamoyl) pyrrolidin-3-yl acetate] | – | 50 to 79 | IC50 ([2]; LNCaP/AR, 144 h): < 100 nM |
